Laboratory results reported in PubChem BioAssay AID588668 (The Scripps Research Institute Molecular Screening Center, 2011).

What follows are compounds tested against Mitogen-activated protein kinase 1 (Homo sapiens) (UniProt P28482) (assay: P-MAPK1 protein lowering, cellular counter-screen – SW620 cells, chemiluminescent western blot, powder samples, counter-screen for KLF5 inhibitor project, late-stage follow-up (AID 588668)). Details: phospho-ERK1/2 western blot, 24 h, at 10 µM.
Sequence of Mitogen-activated protein kinase 1 (Homo sapiens) (P28482 whole entry, looked up): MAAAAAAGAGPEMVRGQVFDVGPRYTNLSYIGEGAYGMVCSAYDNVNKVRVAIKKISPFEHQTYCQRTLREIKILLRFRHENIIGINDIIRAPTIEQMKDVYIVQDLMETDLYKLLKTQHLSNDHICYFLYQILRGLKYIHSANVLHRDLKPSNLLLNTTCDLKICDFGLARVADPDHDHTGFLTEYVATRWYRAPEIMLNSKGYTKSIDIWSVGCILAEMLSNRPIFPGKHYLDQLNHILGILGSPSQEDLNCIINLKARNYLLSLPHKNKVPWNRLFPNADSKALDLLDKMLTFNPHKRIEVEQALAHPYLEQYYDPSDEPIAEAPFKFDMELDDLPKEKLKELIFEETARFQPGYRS

Row | phospho-ERK1/2 inhibition (% vs DMSO), hits give high values [%] | Compound
1 | 48.2 | CN(C(=O)CNC(=O)/C=C/c1cccc(Cl)c1)C1CCS(=O)(=O)CC1
2 | 31.3 | CN(C(=O)CNC(=O)/C=C/c1cccc(Cl)c1)C1CCS(=O)(=O)C1 (stereo not drawn)
3 | 35.6 | CN(C(=O)COC(=O)/C=C/c1cccc([N+](=O)[O-])c1)C1CCS(=O)(=O)C1 (stereo not drawn)
